Results published in patent US20200215074A1, “Method of Treatment of Cancer” (CIPLA LIMITED, priority 2017, published 2020).

Assays:
[1] = test system: PAR-4; details: literature (Burikhanov et al. 2014); cited from earlier work
[2] = test system: PAR-4; experiment: In-vitro PAR-4 induction in mouse embryonic fibroblast cells (Western blot); format: cell-based; details: for PAR-4 secretion in the cell supernatant: 18-21 h incubation, Western blot
Description: Mouse embryonic fibroblast cells were harvested from exponential phase cultures. After a 24 h recovery period to allow the cells to resume exponential growth the cells were treated with […] followed by further 18-21 h of incubation. […] The samples were also subjected to SDS/PAGE and Coomassie blue staining to determine albumin levels in serum from the Conditioned Medium (CM) as another loading control.
Mouse embryonic fibroblast cells were harvested from exponential phase cultures. After a 24 h recovery period to allow the cells to resume exponential growth the cells were treated with […] followed by further 18-21 h of incubation. […] The samples were also subjected to SDS/PAGE and Coomassie blue staining to determine albumin levels in serum from the CM as another loading control.
Mouse embryonic fibroblast were harvested from exponential phase cultures. After a 24 h recovery period to allow the cells to resume exponential growth the cells were treated with 25 µM of Meloquine followed by further 18-21 h of incubation. […] The samples were also subjected to SDS/PAGE and Coomassie blue staining to determine albumin levels in serum from the cell supernatant as another loading control.
Mouse embryonic fibroblast cells were harvested from exponential phase cultures. After a 24 h recovery period to allow the cells to resume exponential growth the cells were treated with […] followed by further 18-21 h of incubation. […] The samples were also subjected to SDS/PAGE and Coomassie blue staining to determine albumin levels in serum from the CM as another loading control.
Mouse embryonic fibroblast were harvested from exponential phase cultures. After a 24 h recovery period to allow the cells to resume exponential growth the cells were treated with 25 μM of Mebendazole followed by further 18-21 h of incubation. […] The samples were also subjected to SDS/PAGE and Coomassie blue staining to determine albumin levels in serum from the cell supernatant as another loading control.
Mouse embryonic fibroblast were harvested from exponential phase cultures. After a 24 h recovery period to allow the cells to resume exponential growth the cells were treated with 25 µM of Tafenoquine followed by further 18-21 h of incubation. […] The samples were also subjected to SDS/PAGE and Coomassie blue staining to determine albumin levels in serum from the cell supernatant as another loading control.
The experiment was conducted as per method set in an Example 1.

[3] = test system: PAR-4; experiment: In-vivo PAR-4 induction in C57/BL6 mice (systemic serum PAR-4); parameters: species or system mouse; details: blood 24 hrs later
Description: Immunocompetent mice were orally administered with 10 mg/kg and 51.2 mg/kg body weight of Mefloquine or vehicle for 3 consecutive days followed by collection of blood 24 hrs later, serum separation and testing for systemic levels of PAR-4. Immunocompetent mice were orally administered with 1.5 mg/kg body weight of Narasin or vehicle for 3 consecutive days followed by collection of blood 24 hrs later, serum separation and testing for systemic levels of PAR-4.

[4] = test system: PAR-4; experiment: PAR-4 inducing activity, general statement of the inventors; format: cell-based, human and mouse; details: summary statement, no test details
[5] = test system: GRP-78; experiment: In-vitro GRP-78 induction in human ovarian and renal cancer cell lines (Western blot); format: cell-based; details: 25 μM, 18-21 h
Description: Human ovarian cancer cell line SKOV-3 and renal cancer cell line 786-0 were harvested from exponential phase cultures. After a 24 h recovery period to allow the cells to resume exponential growth the cells were treated with 25 μM of Mefloquine followed by further 18-21 h of incubation. Induction of GRP-78 expression was checked in the cell lysate by subjecting the samples to Western blot analysis with antibodies specific for GRP-78.
Human ovarian cancer cell line SKOV-3 and renal cancer cell line 786-0 were harvested from exponential phase cultures. After a 24 h recovery period to allow the cells to resume exponential growth the cells were treated with 25 μM of Mebendazole followed by further 18-21 h of incubation. Induction of GRP-78 expression was checked in the cell lysate by subjecting the samples to Western blot analysis with antibodies specific for GRP-78.
Human ovarian cancer cell line SKOV-3 and renal cancer cell line 786-0 were harvested from exponential phase cultures. After a 24 h recovery period to allow the cells to resume exponential growth the cells were treated with 25 μM of Tafenoquine followed by further 18-21 h of incubation. Induction of GRP-78 expression was checked in the cell lysate by subjecting the samples to Western blot analysis with antibodies specific for GRP-78.

[6] = test system: PAR-4; details: at micromolar levels; cited from earlier work
[7] = test system: metastatic lung tumors; details: injected in mice; literature (Zhao et al. 2011); cited from earlier work
[8] = 25 μM (25 M [sic] for Mefloquine and Tafenoquine)
[9] = SKOV-3 human ovarian cancer cell line

For `CN(C)c1ccc2cc(-c3ccccc3F)c(N)nc2c1` [Arylquin-1], the “Secretion of PAR-4 from normal cells in mice” value (shortened to “Secretion … in mice”) [1] is given as “can increase secretion of PAR-4”.

With `CC[C@@H](C(=O)O)[C@@H]1O[C@@H]([C@@H](C)[C@H](O)[C@H](C)C(=O)[C@H](CC)[C@H]2O[C@]3(C=C[C@@H](O)[C@]4(CC[C@@](C)([C@H]5CC[C@](O)(CC)[C@H](C)O5)O4)O3)[C@H](C)C[C@@H]2C)[C@@H](C)C[C@@H]1C` [Narasin] the “PAR-4 secretion in the cell supernatant” value ([2]; test concentration not given) was “able to induce robust PAR-4 secretion”, the “Elevation of PAR-4 in mouse serum relative to vehicle” value ([3]; oral 1.5 mg/kg for 3 consecutive days) was “induced robust elevation of PAR-4” and the PAR-4 inducing activity [4] was “found to possess PAR-4 inducing activity”.

With `OC(c1cc(C(F)(F)F)nc2c(C(F)(F)F)cccc12)C1CCCCN1` (stereo not shown) [Mefloquine] the “PAR-4 secretion in the cell supernatant” value [2, 8] was “able to induce robust PAR-4 secretion”, the “Elevation of PAR-4 in mouse serum relative to vehicle” value ([3]; oral 51.2 mg/kg for 3 consecutive days) was “induced robust elevation of PAR-4” and the “GRP-78 expression in cell lysate” value ([5]; 786-0 renal cancer cell line) was “induced GRP-78 expression”. The “GRP-78 expression in cell lysate” value [5, 9] was “induced GRP-78 expression” and the PAR-4 inducing activity [4] was “found to possess PAR-4 inducing activity”.

For `COc1cc(C)c2c(Oc3cccc(C(F)(F)F)c3)c(OC)cc(NC(C)CCCN)c2n1` (stereo not shown) [Tafenoquine], the “Dose dependence of PAR-4 induction” value [2] was “Dose dependent induction of PAR-4”, the “PAR-4 secretion in the cell supernatant” value [2, 8] was “able to induce robust PAR-4 secretion” and the “Induction of PAR-4 in cell lysate” value [2] was “Induction of PAR-4”. For the same molecule, the “GRP-78 expression in cell lysate” value ([5]; 786-0 renal cancer cell line) was “induced GRP-78 expression”, the “GRP-78 expression in cell lysate” value [5, 9] was “induced GRP-78 expression” and the PAR-4 inducing activity [4] was “found to possess PAR-4 inducing activity”.

With `COc1ccc2nc3cc(Cl)ccc3c(Nc3cc(CN4CCCC4)c(O)c(CN4CCCC4)c3)c2n1` [Pyronaridine] the “Dose dependence of PAR-4 induction” value [2] was “in a dose dependent manner”, the “PAR-4 secretion in the cell supernatant” value ([2]; test concentration not given) was “able to induce robust PAR-4 secretion” and the PAR-4 inducing activity [4] was “found to possess PAR-4 inducing activity”.

In the case of `COc1ccc(C2=N[C@@H](c3ccc(Cl)cc3)[C@@H](c3ccc(Cl)cc3)N2C(=O)N2CCNC(=O)C2)c(OC(C)C)c1` [Nutlin-3a], the “Secretion … in mice” value [1] is given as “can increase secretion of PAR-4” and the “PAR-4 secretion in MEF cells” value [6] is given as “stimulated PAR-4 secretion”.

For `Cc1cccc(C)c1OCC(=O)N[C@@H](Cc1ccccc1)[C@@H](O)C[C@H](Cc1ccccc1)NC(=O)[C@H](C(C)C)N1CCCNC1=O` [Lopinavir], the “PAR-4 secretion in the cell supernatant” value ([2]; test concentration not given) was “able to induce robust PAR-4 secretion” and the PAR-4 inducing activity [4] was “found to possess PAR-4 inducing activity”.

In the case of `COC(=O)Nc1nc2ccc(C(=O)c3ccccc3)cc2[nH]1` [Mebendazole], the “PAR-4 secretion in the cell supernatant” value [2, 8] is reported as “able to induce robust PAR-4 secretion”, the “Induction of PAR-4 in cell lysate” value [2] is reported as “Induction of PAR-4” and the “GRP-78 expression in cell lysate” value ([5]; 786-0 renal cancer cell line) is reported as “induced GRP-78 expression”. For the same molecule, the “GRP-78 expression in cell lysate” value [5, 9] was “induced GRP-78 expression” and the PAR-4 inducing activity [4] was “found to possess PAR-4 inducing activity”.

For `COc1ccc(-c2ccc3cc(C(=O)O)ccc3c2)cc1C12CC3CC(CC(C3)C1)C2` [Adapalene], the PAR-4 inducing activity [4] was “found to possess PAR-4 inducing activity”.

For `C[C@@H]1CN(c2c(F)c(N)c3c(=O)c(C(=O)O)cn(C4CC4)c3c2F)C[C@H](C)N1` [Sparfloxacin], the “PAR-4 secretion in the cell supernatant” value ([2]; test concentration not given) was “able to induce robust PAR-4 secretion” and the PAR-4 inducing activity [4] was “found to possess PAR-4 inducing activity”.

In the case of `O=C(Nc1cc(Cl)cc2c1[nH]c1cnccc12)c1cccnc1` [PS-1145], the “Secretion … in mice” value [1] is listed as “can increase secretion of PAR-4”.

With `CCn1cc(C(=O)O)c(=O)c2cnc(N3CCNCC3)nc21` [Pipemidic Acid] the “PAR-4 secretion in the cell supernatant” value ([2]; test concentration not given) was “able to induce robust PAR-4 secretion” and the PAR-4 inducing activity [4] was “found to possess PAR-4 inducing activity”.

For `CC(C)N1CCN(c2ccc(OCC3COC(Cn4cncn4)(c4ccc(Cl)cc4Cl)O3)cc2)CC1` (stereo not shown) [Terconazole], the “Dose dependence of PAR-4 induction” value [2] was “in a dose dependent manner”, the “PAR-4 secretion in the cell supernatant” value ([2]; test concentration not given) was “able to induce robust PAR-4 secretion” and the “Induction of PAR-4 in cell lysate” value [2] was “Induction of PAR-4”. The PAR-4 inducing activity [4] was “found to possess PAR-4 inducing activity”.

With `CCn1cc(C(=O)O)c(=O)c2ccc(C)nc21` [Nalidixic Acid] the “PAR-4 secretion in the cell supernatant” value ([2]; test concentration not given) was “able to induce robust PAR-4 secretion” and the PAR-4 inducing activity [4] was “found to possess PAR-4 inducing activity”.

B1: recombinant PAR-4: recombinant PAR-4 protein injected in mice to elevate extracellular PAR-4 (protein, UniProt Q96IZ0 1-340, looked up)
PRKC apoptosis WT1 regulator …: MATGGYRTSSGLGGSTTDFLEEWKAKREKMRAKQNPPGPAPPGGGSSDAAGKPPAGALGTPAAAAANELNNNLPGGAPAAPAVPGPGGVNCAVGSAMLTRAAPGPRRSEDEPPAASASAAPPPQRDEEEPDGVPEKGKSSGPSARKGKGQIEKRKLREKRRSTGVVNIPAAECLDEYEDDEAGQKERKREDAITQQNTIQNEAVNLLDPGSSYLLQEPPRTVSGRYKSTTSVSEEDVSSRYSRTDRSGFPRYNRDANVSGTLVSSSTLEKKIEDLEKEVVRERQENLRLVRLMQDKEEMIGKLKEEIDLLNRDLDDIEDENEQLKQENKTLLKVVGQLTR
In the case of B1, the “Effect on metastatic lung tumors” value [7] is given as “cause inhibition of metastatic lung tumors”.
